Common to all, as to assay: NCI tumour cell line growth inhibition, 48 h
In assay [1] the test system is UACC-62.
The subject of assay [2] is T47D.
Assay [3] relates to HCT-15.
Assay [4] deals with SN12C.
For assay [5], the system named is OVCAR-3.
The subject of assay [6] is HL-60.
Assay [7] has as its system OVCAR-8.
The test system of assay [8] is NCI-H522.
Assay [9] deals with MDA-N.
The test system of assay [10] is TK-10.
Assay [11] concerns SK-OV-3.
The test system of assay [12] is UACC-257.
Assay [13] relates to 786-0.
For assay [14], the system named is SW-620.
For assay [15], the system named is SK-MEL-2.
Assay [16] relates to HCC 2998.
Assay [17] concerns SNB-19.
Assay [18] has as its system CCRF-CEM.
Assay [19] concerns NCI-H460.

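Assay format: 96-well plates, 48-hour exposure. GI50: concentration for 50% inhibition of growth.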 Calls of active or inactive are those of the source. Cut-off read from the data, not from the text of the source: active = GI50 up to about 1.1 µM and inactive = higher.

Data on eight molecules can be found in ChEMBL document CHEMBL1201862, “PubChem BioAssay data set” (2004).

On to `O=C(OCC12CC3CC(CC(C3)C1)C2)c1ccc(NCc2cc(O)ccc2O)cc1`, for which the GI50 in assay [1] is 1.6 µM (inactive); in [2] it was 0.473 µM (active); in assay [3] it was 1.32 µM; in assay [4], 2.57 µM (inactive); in assay [5] it was 0.305 µM (active); in assay [6], 0.145 µM (active). Further, the GI50 in [7] was 1.81 µM (inactive); in [8] it was 0.0662 µM (active); in [9], 2.81 µM (inactive); in assay [10], 1.99 µM (inactive); in [11], 6.08 µM (inactive); in assay [12], 1.64 µM (inactive). Further, the GI50 in assay [13] was 0.708 µM (active); in assay [14], 3.02 µM (inactive); in assay [15], 2.5 µM (inactive); in [16], 1.79 µM (inactive); in [17], 4.33 µM (inactive); in [18] it was 0.0547 µM (active). In addition, the GI50 in [19] was 2.57 µM (inactive).

For the molecule `Cc1cccc(C(=O)O)c1CC1NCCC2c3ccccc3NC12` (configuration not stated), the GI50 in [1] was > 100 µM (inactive); in assay [2] it was > 100 µM (inactive); in [3], over 100 µM; in [4] it was > 100 µM (inactive); in assay [5], 20.7 µM (inactive); in assay [6] it was > 100 µM (inactive). The GI50 in assay [7], in assay [8], in [9], in assay [10], in [11] and in [12] was > 100 µM (inactive) in each case. The GI50 in assay [13], in assay [14], in assay [15], in assay [16], in [17] and in [18] was > 100 µM (inactive) each time. For the same molecule, in assay [19], the GI50 is > 100 µM (inactive).

Regarding `COc1cc(C[C@H]2C(=O)OC[C@@H]2Cc2ccc(OC)c(OC)c2)cc(OC)c1`, the GI50 is 62.8 µM (inactive) in assay [1]; 35.2 µM (inactive) in assay [2]; 53.3 µM in assay [3]; > 100 µM (inactive) in assay [4]; 59.3 µM (inactive) in [5]; 37.2 µM (inactive) in [6]. Also, the GI50 is 98.4 µM (inactive) in assay [7]; 64.3 µM (inactive) in assay [8]; 58.5 µM (inactive) in assay [9]; > 100 µM (inactive) in assay [10]; > 100 µM (inactive) in [11]; 51.5 µM (inactive) in [12]. Besides, the GI50 in assay [13] was > 100 µM (inactive); in assay [14], 70.6 µM (inactive); in [15] it was 78.5 µM (inactive); in assay [16] it was > 100 µM (inactive); in assay [17], > 100 µM (inactive); in assay [18], 25.8 µM (inactive). For the same molecule, the GI50 in [19] is > 100 µM (inactive).

On to `CN=C(n1ccnc1)n1ccnc1`, for which the GI50 is > 100 µM (inactive) in assay [1]; > 100 µM (inactive) in assay [2]; over 100 µM in assay [3]; > 100 µM (inactive) in assay [4]; > 100 µM (inactive) in assay [5]; > 100 µM (inactive) in assay [6]. In addition, the GI50 in [7], in assay [8], in [9], in [10], in [11] and in assay [12] was > 100 µM (inactive) in each case. The GI50 in [13], in assay [14], in assay [15], in assay [16], in [17] and in assay [18] was > 100 µM (inactive) in each case. In addition, the GI50 in [19] is > 100 µM (inactive).

Take `CC(=O)N1C2=CCCC2(C)c2ccccc21` (configuration not stated): the GI50 is 80.4 µM (inactive) in assay [1]; 79.3 µM (inactive) in [2]; over 100 µM in assay [3]; 70.5 µM (inactive) in [4]; 37.5 µM (inactive) in assay [5]; 23.7 µM (inactive) in assay [6]. Moreover, the GI50 was > 100 µM (inactive) in assay [7]; 26.8 µM (inactive) in [8]; > 100 µM (inactive) in [9]; > 100 µM (inactive) in assay [10]; > 100 µM (inactive) in assay [11]; 68.7 µM (inactive) in assay [12]. The GI50 in assay [13] was > 100 µM (inactive); in assay [14] it was > 100 µM (inactive); in assay [15] it was > 100 µM (inactive); in [16], 26.5 µM (inactive); in assay [17], > 100 µM (inactive); in assay [18], > 100 µM (inactive). For the same molecule, the GI50 in assay [19] was 72.8 µM (inactive).

For the molecule `CCCN1C(=O)CCC2=C1CCc1c2ccc(Cl)c1Cl`, the GI50 in assay [1] was 0.492 µM (active); in assay [2], 36.7 µM (inactive); in assay [3], 50.6 µM; in assay [4] it was 28.2 µM (inactive); in assay [5] it was 23 µM (inactive); in assay [6] it was 15.8 µM (inactive). Moreover, the GI50 in assay [7] was 23.2 µM (inactive); in assay [8], 23.3 µM (inactive); in assay [9] it was 46 µM (inactive); in assay [10], 11.9 µM (inactive); in [11], 24.3 µM (inactive); in assay [12], 39.9 µM (inactive). Further, the GI50 in assay [13] is 31.9 µM (inactive); in assay [14], 48.4 µM (inactive); in [15], 13.5 µM (inactive); in assay [16], 21.3 µM (inactive); in [17] it was 26.8 µM (inactive); in [18] it was 39.9 µM (inactive). For the same molecule, in assay [19], the GI50 is 43.6 µM (inactive).

Regarding `C=CCOn1c(C=C)nc2ccc(C)cc21`, the GI50 is 13.6 µM (inactive) in [1]; 10.7 µM (inactive) in [2]; 17 µM in [3]; 16.3 µM (inactive) in [4]; 16 µM (inactive) in assay [5]; 5.01 µM (inactive) in assay [6]. The GI50 in assay [7] is 23.6 µM (inactive); in assay [8], 15.5 µM (inactive); in assay [9] it was 17.1 µM (inactive); in assay [10], 13.6 µM (inactive); in [11] it was 35.2 µM (inactive); in assay [12], 13.7 µM (inactive). Besides, the GI50 was 14 µM (inactive) in [13]; 15.4 µM (inactive) in assay [14]; 15.5 µM (inactive) in assay [15]; 18.5 µM (inactive) in assay [16]; 17.9 µM (inactive) in [17]; 2.44 µM (inactive) in assay [18]. Besides, the GI50 in assay [19] is 13.7 µM (inactive).

With `O=C(c1cc(Cl)cc(Cl)c1)N1CCN(C(=O)c2cc(Cl)cc(Cl)c2)C1=S`, the GI50 was 9.91 µM (inactive) in assay [1]; 7.06 µM (inactive) in assay [2]; 12.6 µM in [3]; 11.9 µM (inactive) in assay [4]; 10.9 µM (inactive) in assay [5]; 3.31 µM (inactive) in assay [6]. In addition, the GI50 is 18.6 µM (inactive) in [7]; 4.38 µM (inactive) in [8]; 14.1 µM (inactive) in [9]; 10.7 µM (inactive) in assay [10]; 16.3 µM (inactive) in assay [11]; 13.3 µM (inactive) in assay [12]. Further, the GI50 in assay [13] was 2.4 µM (inactive); in assay [14], 12.2 µM (inactive); in assay [15], 16.8 µM (inactive); in [16] it was 16.7 µM (inactive); in assay [17] it was 18.3 µM (inactive); in [18], 2.25 µM (inactive). Besides, the GI50 in assay [19] was 16.6 µM (inactive).
